Reference: patent publication US20170354600A1, “COMPOSITION AND METHOD FOR STABILIZING GSH” (priority 2016, published 2017)
Where two headings read alike, the source gives them in different places.

Tests used:
[1] = GSH retention in solid composition exposed to hydrogen peroxide oxidation (Ellman colorimetric, 405 nm); conditions: 0.1 mmol GSH, 1 ml hydrogen peroxide 1.0% w/v
Procedure: 0.1 mmol of reduced glutathione (96%) was premixed with 5 g of liquid sorbitol (96%, Roquette Corp) using magnetic stirring for 15 minutes at room temperature. Then, as described in Table 2, an amount of each food grade antioxidant were separately added for each test, followed by an additional 10 minutes of stirring. The mixture was then homogeneously dispersed in 100 g of powder sorbitol using mechanical high shear blending for 3 minutes. 1 ml of hydrogen peroxide solution 1.0% w/v was added to each test and a continue mixing for additional 1 minute. A control test with no antioxidant was also performed.
After 6 hours of exposure to oxidation, 5 g of the treated solid mixture was added to 30 ml of 0.1M disodium phosphate/0.001 mM EDTA pH 8.0 buffer solution. This solution was then extracted 3 times with chloroform using a separation funnel. The remaining aqueous phase was added to 100 ml volumetric flask and the volume was completed using 0.1M disodium phosphate/0.001 mM EDTA pH 8.5 buffer solution. The GSH present in this solution was quantify by colorimetric method at 405 nm using Elman's reagent, 5,5′-Dithio-bis-(2-nitrobenzoic acid), using L-glutathione 99%, provided by Sigma Aldrich, as standard. The retaining percentage for each solid composition was calculated and expressed as percentage values in Table 3. […]

[2] = GSH retention in liquid composition exposed to hydrogen peroxide oxidation (Ellman colorimetric, 405 nm); conditions: 0.1 mmol GSH, pH 8.0 buffer, 1 ml hydrogen peroxide 0.5% w/v
Procedure: 0.1 mmol of reduced glutathione (Kohjin Co. Ltd) was premixed with 5 g of liquid sorbitol (96%, Roquette Corp) using magnetic stirring for 10 minutes. Then, as described in Table 5, incremental concentrations of food grade antioxidants where added followed by additional 10 minutes of stirring. The mixture was then added to 100 g of 0.1M disodium phosphate/0.001 mM EDTA pH 8.0 buffer solution, then 1 ml of hydrogen peroxide solution 0.5% w/v was added to each test. A control test with no antioxidant was also performed.
After 1 hour of exposure to oxidation, 5 grams of the treated solution was added to 30 ml of 0.1M disodium phosphate/0.001 mM EDTA pH 8.5 buffer solution. This solution was then extracted 3 times with chloroform using a separation funnel. The remaining aqueous phase was added to a 100 ml volumetric flask and the volume was completed using 0.1M disodium phosphate/0.001 mM EDTA pH 8.0 buffer solution. The GSH present in this solution was quantify by colorimetric method at 405 nm using Elman's reagent, 5,5′-Dithio-bis-(2-nitrobenzoic acid), using L-glutathione 99%, provided by Sigma Aldrich, as standard. The retaining percentage for each solid composition was calculated and expressed as percentage values in Table 6. […]

[3] = GSH, cited from earlier work

SMILES	Retention percentage after 6 hours of oxidation in solid compositions ([1]; 0.001 mmol antioxidant)	Retention percentage after 6 hours of oxidation in solid compositions ([1]; 0.01 mmol antioxidant)	Retention percentage after 6 hours of oxidation in solid compositions ([1]; 10 mmol antioxidant)	Retention percentage after 6 hours of oxidation in solid compositions ([1]; 18.18 mmol antioxidant)	Retention percentage after 1 hour of oxidation in liquid composition ([2]; 0.001 mmol antioxidant)	Retention percentage after 1 hour of oxidation in liquid composition ([2]; 0.01 mmol antioxidant)	Retention percentage after 1 hour of oxidation in liquid composition ([2]; 1 mmol antioxidant)	Retention percentage after 1 hour of oxidation in liquid composition ([2]; 10 mmol antioxidant)	Half life ([3]; pH 6.5, 20° C., 0.1M K2HPO4/KH2PO4 Buffer)	Half life ([3]; pH 7.5, 20° C., 0.1M K2HPO4/KH2PO4 Buffer)	Half life ([3]; pH 8.5, 0° C., 0.1M K2HPO4/KH2PO4 Buffer)	Half life ([3]; pH 8.5, 20° C., 0.1M K2HPO4/KH2PO4 Buffer + 0.1 nM Cu + 2)	Half life ([3]; pH 8.5, 20° C., 0.1M K2HPO4/KH2PO4 Buffer + 1.0 nM EDTA)	Half life ([3]; pH 8.5, 20° C., 0.1M K2HPO4/KH2PO4 Buffer)	Half life ([3]; pH 8.5, 40° C., 0.1M K2HPO4/KH2PO4 Buffer)
O=C1O[C@H]([C@@H](O)CO)C(O)=C1O [Ascorbic acid, L-Ascorbic acid]	0.00%	14.29%	28.96%	18.18%	0.00%	0.00%	17.92%	32.08%	–	–	–	–	–	–	–
CC(=O)OC/C=C(C)/C=C/C=C(C)/C=C/C1=C(C)CCCC1(C)C [Vitamin A, Vitamin A acetate]	28.57%	33.77%	51.04%	46.36%	14.29%	21.95%	33.25%	49.79%	–	–	–	–	–	–	–
N[C@@H](CCC(=O)N[C@@H](CS)C(=O)NCC(=O)O)C(=O)O [GSH, Reduced glutathione]	–	–	–	–	–	–	–	–	16 min	9 min	8 min	1.2 min	70 min	1.3 min	0.2 min
CC(=O)Oc1c(C)c(C)c2c(c1C)CC[C@@](C)(CCC[C@H](C)CCC[C@H](C)CCCC(C)C)O2 [Vitamin E, DL alpha tocopheryl acetate]	24.16%	31.04%	45.19%	39.61%	10.39%	16.88%	30.39%	41.69%	–	–	–	–	–	–	–
CCCCCCCCCCCCCCCC(=O)OC[C@H](O)[C@H]1OC(=O)C(O)=C1O [Ascorbyl palmitate]	18.18%	25.97%	46.10%	36.88%	0.00%	13.38%	18.83%	36.36%	–	–	–	–	–	–	–
